Measured values published in publication doi:10.1101/2023.08.21.552681v1 (biorxiv, 2023).

target: T1, ctdWDR91 (Homo sapiens, UniProt A4D1P6); assay: biochemical
T1 sequence (A4D1P6 392-747): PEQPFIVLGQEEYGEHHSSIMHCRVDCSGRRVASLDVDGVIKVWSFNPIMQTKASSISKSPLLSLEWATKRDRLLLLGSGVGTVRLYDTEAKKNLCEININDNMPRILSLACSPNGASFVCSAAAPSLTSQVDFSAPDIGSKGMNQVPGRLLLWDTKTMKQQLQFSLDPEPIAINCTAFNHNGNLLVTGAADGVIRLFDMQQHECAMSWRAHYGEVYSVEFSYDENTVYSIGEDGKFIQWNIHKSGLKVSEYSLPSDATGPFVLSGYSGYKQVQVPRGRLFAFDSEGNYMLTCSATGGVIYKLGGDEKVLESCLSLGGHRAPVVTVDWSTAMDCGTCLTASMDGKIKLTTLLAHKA

Kd	Compound
> 45 µM	Fc1ccc(N2CCC(CNc3ncnc4ccncc34)C2)cc1F (stereo not shown) [MRGG044795a]
> 45 µM	CC1(CNC2CCN(C3CC3)C2)CCN(C(=O)OC(C)(C)C)C1 (stereo not shown) [MRGG045285a]
> 45 µM	Cc1ccccc1N1CCC(CNC(=O)Cc2ccc(C(F)(F)F)cc2)C1 (stereo not shown) [MRGG044786a]
> 45 µM	Cc1ccc(C(=O)NC(c2ccc(Cl)cc2)C2CC2)cc1[N+](=O)[O-] (stereo not shown) [MRGG044833a]
> 45 µM	O=C1CC(c2nccs2)NC(=O)N1CC1CCN(c2ccc(Cl)cc2)C1 (stereo not shown) [MRGG045332a]
> 45 µM	N#Cc1ccc2c(c1)CCCCC2NCC1CCN(C2CC2)C1 (stereo not shown) [MRGG045300a]
> 45 µM	O=C(CCN1C[C@@H]2C[C@H]1CN2C1CC1)NCc1ccccc1Cl [MRGG045281a]
> 45 µM	CC1CC(NC(=O)c2c[nH]c3cccc(Cl)c23)CN1C1CC1 (stereo not shown) [MRGG045323a]
> 45 µM	N#Cc1cccc2c1CCN(C(=O)NCC1CCN(c3ccc(Cl)cc3)C1)C2 (stereo not shown) [MRGG045297a]
> 45 µM	COCC1CCN(c2ccc(C(=O)N3C[C@@H]4C[C@H]3CN4C3CC3)cc2)C1 (stereo partly shown) [MRGG045264a]
> 45 µM	O=C(NCc1ccc(N2CCCC2)cc1)c1ccc(F)cc1 [XSGG119722b]
> 45 µM	CCC(NC(=O)CN1CCn2cncc2C1)c1ccc(Cl)cc1 (stereo not shown) [MRGG044822a]
> 45 µM	O=C1NCC2(CC2)C(=O)N1CC1CCN(c2cccc(Br)c2)C1 (stereo not shown) [MRGG045328a]
> 45 µM	O=C(NCC1CCN(C2CC2)C1)c1ccc(Cl)cc1 (stereo not shown) [MRGG044816a]
> 45 µM	CC1CN(C2CC2)CC1NC(=O)CCCCc1c[nH]c2ccccc12 (stereo not shown) [MRGG045292a]
> 45 µM	CC1CN(C2CC2)CC1NC1CCN(C2CC2)CC1 (stereo not shown) [MRGG045338a]
> 45 µM	c1ccc(-n2ncc3c(NCC4CCN(C5CC5)C4)ncnc32)cc1 (stereo not shown) [MRGG045311a]
> 45 µM	O=C(c1ccccc1)N1CCC(CN(C2CC2)C2CC2)C1 (stereo not shown) [MRGG045320a]
> 45 µM	OC1CN(C2CC2)CC1N1CCc2ccccc2C1 (stereo not shown) [MRGG045310a]
> 45 µM	Cc1cc(C#N)nc(NC2CC(C)N(C3CC3)C2)n1 (stereo not shown) [MRGG044798a]

Kd	Compound
> 45 µM	Cc1ccccc1CN1CC(=O)N(CC2CCN(c3ccc(F)cc3)C2)C1=O (stereo not shown) [MRGG045291a]
> 45 µM	N#Cc1cn(CC2CCN(c3ccccc3)C2)c(=O)[nH]c1=O (stereo not shown) [MRGG044810a]
> 45 µM	CC1CN(C2CC2)CC1NC(=O)c1cc2cc(Br)ccc2o1 (stereo not shown) [MRGG044827a]
> 45 µM	Cc1ccc(CN2CCC(CN(C)C3CC3)C2)s1 (stereo not shown) [MRGG045327a]
> 45 µM	CS(=O)(=O)N1CCC(CN(Cc2cccc(F)c2)C2CC2)C1 (stereo not shown) [MRGG045308a]
> 45 µM	c1ccc2oc(-c3n[nH]cc3CNCC3CCN(C4CC4)C3)cc2c1 (stereo not shown) [MRGG044801a]
> 45 µM	CC(=O)N1CCCC(C(=O)N(C)CCc2ccc(F)cc2)C1 (stereo not shown) [MRGG044837a]
> 45 µM	Cc1cc(OCc2ccccc2)nc(N(C)C2CCN(C3CC3)C2)n1 (stereo not shown) [MRGG045325a]
> 45 µM	CCC(NC(=O)c1ccc(S(=O)(=O)NC2CC2)cc1)c1ccc(Br)cc1 (stereo not shown) [MRGG044824a]
> 45 µM	O=c1c2c(F)cccc2ncn1CC1CCN(C2CC2)C1 (stereo not shown) [MRGG044781a]
> 45 µM	NC(=O)NC(CC(=O)Nc1ccc(N2CCCC2)cc1)c1ccc(Cl)cc1 (stereo not shown) [XSGG048242e]
> 45 µM	CC(C)(C)OC(=O)N1CCCC1C1CCN(C2CC2)C1 (stereo not shown) [MRGG045334a]
> 45 µM	O=[N+]([O-])c1ccc(N2CCCC2)cc1NCc1ccc(Cl)cc1 [MRGG044778a]
> 45 µM	CN(Cc1ccccc1OCc1ccccc1F)C1CCN(C2CC2)C1 (stereo not shown) [MRGG045303a]
> 45 µM	Cc1ccc(N)cc1C(=O)N1C2C=C(c3ccccc3)CC1CC2 (stereo not shown) [MRGG044818aAD]
> 45 µM	CC1CCN(c2ccc(C(=O)N3c4ccccc4CC3CO)cc2)C1 (stereo not shown) [MRGG044805a]
> 45 µM	CCN1CCN(c2ccc(C(=O)N(C)c3cccc(C)c3)cc2F)CC1 [MRGG045277a]
> 45 µM	C[C@H](NC1CCN(C2CC2)C1)c1cccc2cnccc12 (stereo partly shown) [MRGG045313a]
> 45 µM	NC(=O)C1=NOC(CNC(=O)NCC2CCN(c3ccccc3)C2)C1 (stereo not shown) [MRGG044840a]

Continued, molecule first:

Compound	Kd
CN(C)C1(CNC(=O)c2ccc3oc(=O)[nH]c3c2)Cc2ccccc2C1 [MRGG044797a]	> 45 µM
COC(=O)c1ccc(C(=O)N2C3CCC2CN(C)C3)cn1 [MRGG045263a]	> 45 µM
O=[N+]([O-])c1ccc(N2CCC(CNc3ccccn3)C2)c2ccncc12 (stereo not shown) [MRGG044831a]	> 45 µM
CNC(=O)[C@@H](NC(=O)c1ccc2[nH]ccc2n1)C(C)C [MRGG044793a]	> 45 µM
N#Cc1cc(C#N)cc(CNc2cccc(CN3CCCC3=O)c2)c1 [MRGG045333a]	> 45 µM
CN(CCCc1ccccc1)C(=O)c1cn2ccnc2s1 [MRGG045270a]	> 45 µM
CCN(CC(=O)NCc1cc(Cl)c(Cl)cc1Cl)C1CC1 [MRGG045269a]	> 45 µM
CN(CCc1ccccc1)C(=O)c1nc2sccn2c1CN1CC[C@H](O)C1 [MRGG044785a]	> 45 µM
CN1CCOC(C(NC(=O)c2cncc3cnccc23)c2ccc(Cl)cc2)C1 (stereo not shown) [MRGG045276a]	> 45 µM
Cc1cc(N2CCN(C(=O)c3cc(F)c(F)cc3[N+](=O)[O-])CC2)c(F)cc1[N+](=O)[O-] [MRGG044777a]	> 45 µM
O=C1Cc2ccc(C(=O)NC3Cc4ccccc4C3O)cc2N1 (stereo not shown) [MRGG044800a]	> 45 µM
COc1ccnc(N(C)C(=O)CCn2cccc2)n1 [MRGG045324a]	> 45 µM
CN1CCC(O)(CNC(=O)c2cnc3cc[nH]c3c2)C1 (stereo not shown) [MRGG045295a]	> 45 µM
NC(=O)C1(NC(=O)c2ccc3cccnc3c2)Cc2ccccc2C1 [MRGG045265a]	> 45 µM
NC12CCCC1CN(C(=O)c1nccc3cccnc13)C2 (stereo not shown) [MRGG044815a]	> 45 µM
CC(NC(=O)c1ccc(CNC(N)=O)cc1)c1ccc(Cl)c(Cl)c1 (stereo not shown) [MRGG044836a]	> 45 µM
CN1CC(N(C)C(=O)c2cc(-n3cccc3)ccn2)C1 [MRGG045326a]	> 45 µM
O=C(Cc1ccc(O)c(O)c1)NC(CC1CC1)c1ccc(Cl)cc1 (stereo not shown) [MRGG045306a]	> 45 µM
CC(NC(=O)c1ccc2c(=O)n3c(nc2c1)CCC3)c1ccc(Cl)cc1 (stereo not shown) [MRGG044821a]	> 45 µM
CC(NC(=O)CCNC(=O)c1ccc(Br)cc1)c1ccc(Cl)cc1 (stereo not shown) [XSGG051538e]	> 45 µM
CN(C)c1nc2ccc(NCc3cc4c(cc3O)OCO4)cc2o1 [MRGG044799a]	> 45 µM
N#Cc1cc(CNc2ccccc2CN2CCNC2=O)ccc1F [MRGG044804a]	> 45 µM
CC1(C)CN(C(=O)c2snc(O)c2Cl)c2ccc(Cl)cc21 [MRGG045317a]	> 45 µM
Cc1[nH]c2ccccc2c1CC(=O)N(C)C1CCN(C2CC2)C1 (stereo not shown) [MRGG045290a]	> 45 µM
COc1ccc(C(NC(=O)C2CC(C)=NO2)c2ccc(Cl)cc2)cc1 (stereo not shown) [MRGG045275a]	> 45 µM
CN1CCC2(CCCN(C(=O)c3cccnc3C(N)=O)C2)C1 (stereo not shown) [MRGG045271a]	> 45 µM

Compound	Kd
Cc1c(C#N)c2ccccc2n1CC(=O)N1CCc2ccccc2C1 [MRGG044779a]	> 45 µM
C[C@@H]1CN(S(=O)(=O)c2ccc3ncsc3c2)[C@@H](C)CN1C [MRGG045304a]	> 45 µM
O=C(NCc1ccc2c(c1)OCO2)c1ccc2snnc2c1 [MRGG044780a]	17 µM
Cc1nn(C)cc1C1=NOC(C(=O)N[C@H](C)c2ccc(Br)cc2)C1 (stereo partly shown) [MRGG045282a]	> 45 µM
O=C(NC(CO)C(O)c1ccc(Cl)cc1)c1ccc2ccncc2c1 (stereo not shown) [MRGG045273a]	> 45 µM
CN(Cc1ccc(-c2ccc(Cl)cc2)o1)C(=O)CN1C(=O)c2cccnc2C1=O [MRGG045274a]	> 45 µM
O=C(c1snc(O)c1Cl)N1CCC2(CCc3ccccc3O2)C1 (stereo not shown) [MRGG044808a]	> 45 µM
Cc1nn2cc(C(=O)N(C)CCc3cccc(C#N)c3)nc2s1 [MRGG045278a]	> 45 µM
O=C(NCCc1ccc(O)c(O)c1)Nc1cccc(N2CCNC2=O)c1 [MRGG044825a]	> 45 µM
CNC(=O)c1cccnc1N1C[C@@H]2CN(C)C[C@]2(C)C1 [MRGG045301a]	> 45 µM
O=C(CSc1nnc(-c2ccc(Cl)cc2)o1)NCc1ccc(O)c(O)c1 [MRGG045283a]	> 45 µM
O=c1[nH]nc2n1CCN(Cc1ccccc1CN1CCn3c(n[nH]c3=O)C1)C2 [MRGG045331a]	> 45 µM
Cc1ccc(C(=O)NC2CC2)cc1NCc1cc(C#N)cc(C#N)c1 [MRGG045299a]	> 45 µM
CN(Cc1ccc(Cl)c(Cl)c1)C(=O)COC(=O)C=Cc1ccc(O)c(O)c1 [MRGG045262a]	> 45 µM
CN(C(=O)Cc1coc2ccccc12)C1CCN(C(=O)OC(C)(C)C)C1 (stereo not shown) [MRGG045302a]	> 45 µM
C[C@H]1C(=O)N(CCN2CCc3ccccc32)C(=O)N1C [MRGG045307a]	> 45 µM
CNC(=O)c1cc(C)nc(N2CCC3(CC2)CN(C)c2ccccc23)n1 [MRGG045287a]	> 45 µM
CCOc1ccc2c(c1)C(NC(=O)c1cn3ccnc3s1)CCO2 (stereo not shown) [MRGG044834a]	> 45 µM
Cc1nc(N(C)C)sc1CCNc1cc(C(F)(F)F)cc(C#N)n1 [MRGG044814a]	> 45 µM
CN(C)C(=O)CC1CCN(C(=O)c2cc3cc(O)c(O)cc3s2)CC1 [MRGG045286a]	> 45 µM
Cc1cc(O)c(O)cc1C(=O)NC1(c2cccc(C#N)c2)CCC1 [MRGG045322a]	> 45 µM
N#Cc1cccc(CN(C=O)C2CC3(CCCC3)Oc3ccccc32)c1 (stereo not shown) [MRGG045284a]	> 45 µM
O=C(NC(CCO)c1ccc(Cl)cc1)c1ccc(CN2CCCC2=O)cc1 (stereo not shown) [MRGG045272a]	> 45 µM
O=C(Nc1ccc2oc(=O)ccc2c1)c1cc(F)c(F)cc1[N+](=O)[O-] [MRGG044828a]	> 45 µM
CC(NC(=O)c1cccc(N2CCCC2)c1)(C(=O)O)c1ccccc1 (stereo not shown) [MRGG044796a]	> 45 µM
CC(NC(=O)c1ccc2c(c1)NC(=O)CO2)c1cccc(Cl)c1 (stereo not shown) [MRGG044791a]	36 µM
